Test results published in patent US20190137505A1 (THE ARIZONA BOARD OF REGENTS ON BEHALF OF THE UNIVERSITY OF …, priority 2015, published 2019).

Test: LC-MS/MS MRM quantitation of metformin-MG imidazolinone and metformin in human urine
Type: in vivo
Protocol: An Agilent (Palo Alto, Calif.) 1260 liquid chromatograph was utilized for achieving gradient separation using an Agilent ZORBAX Hilic Plus (2.1×50 mm) column with a 1.8 μm packing size held at 30° C. throughout the separation. A 5 μL injection of urine diluted 1:200 in Milli-Q water and snap filtered ([…] eXtreme® Filter Vial 0.2 um PVDF; Thomson, Oceanside, Calif.) was used for all samples. A binary gradient consisting of 15 mM ammonium acetate in water (A) and acetonitrile (B) at a flow rate of 300 μL/min was used. […] After this, a linear gradient was maintained to achieve 35% B at 9 min which was held for another minute. At 10 min, another linear change was applied to get to the initial condition of 95% B at 11 min. A post-time of three min was used to re-equilibriate the column before the next analysis. The total analysis time was 14 min per sample. Mass spectrometry was performed using an Agilent 6490 triple-quadrupole mass spectrometer with an electrospray ionization (ESI) source. […] After this was determined, the mass spectrometer was operated in product ion scan mode and the most abundant product ions were selected. […] Once the product ions were determined, the collision energy (CE) and cell accelerator voltage (CAV) were optimized for each transition. […]

In the case of `CC1NC(/N=C(\N)N(C)C)=NC1=O` (centres unmarked) [IMZ, (E)-1,1-dimethyl-2-(5-methyl-4-oxo-4,5-dihydro-1H-imidazol-2-yl)guanidine], the “IMZ in urine of MF-treated T2DM patients” value (all MF-treated T2DM patients) is reported as “detected” and the “Levels of the MF-MG adduct detectable in urine” value (human diabetic subjects on MF treatment) is reported as “up to 4.32 μM/specific gravity”.
